# Reference: article PMC6188150, “A small molecule regulator of tissue transglutaminase conformation inhibits the malignant phenotype of cancer cells” (Oncotarget, 2018)
# Target: T1, tissue transglutaminase (tTG) (Homo sapiens, UniProt P21980)
# T1 construct: gene TGM2; recombinant tTG
# T1 sequence (P21980 2-687): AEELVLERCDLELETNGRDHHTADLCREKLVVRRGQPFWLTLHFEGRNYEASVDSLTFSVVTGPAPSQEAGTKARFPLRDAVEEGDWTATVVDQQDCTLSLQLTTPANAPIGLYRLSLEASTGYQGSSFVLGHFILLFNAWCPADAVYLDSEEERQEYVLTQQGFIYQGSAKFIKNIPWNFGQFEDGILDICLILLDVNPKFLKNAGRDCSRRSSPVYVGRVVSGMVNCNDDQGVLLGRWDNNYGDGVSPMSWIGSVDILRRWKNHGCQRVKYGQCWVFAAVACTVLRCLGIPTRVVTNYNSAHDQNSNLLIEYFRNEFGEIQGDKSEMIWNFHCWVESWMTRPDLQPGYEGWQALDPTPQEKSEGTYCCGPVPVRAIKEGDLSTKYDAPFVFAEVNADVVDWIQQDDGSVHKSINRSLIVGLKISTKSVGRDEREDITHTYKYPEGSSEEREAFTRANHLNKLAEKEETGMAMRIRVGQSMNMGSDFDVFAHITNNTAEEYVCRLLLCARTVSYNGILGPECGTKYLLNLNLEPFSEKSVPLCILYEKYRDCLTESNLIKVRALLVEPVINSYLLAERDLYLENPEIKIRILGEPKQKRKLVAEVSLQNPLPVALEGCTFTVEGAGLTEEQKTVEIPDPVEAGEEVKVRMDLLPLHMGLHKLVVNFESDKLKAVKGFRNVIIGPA
# Assay: bodipy-GTP-γS fluorescence binding assay after CaCl2 then EDTA; also BPA/NNDC crosslinking inhibition and trypsin susceptibility
smiles,measurement,value
Cc1ccc(N/C=C2/C(=O)NC(=O)N(c3ccccc3)C2=O)cc1CN1C(=O)c2ccccc2C1=O [TTGM 5826],EC50,20 µM
